How the values were obtained:
recombinant CETP = biological target: T1, recombinant CETP (Homo sapiens, UniProt P11597); test: In vitro CETP inhibitory assay (BODIPY-CE fluorescence assay, CETP RP Activity Assay Kit); format: biochemical; details: for IC50: CETP inhibition, eight-point titration, each concentration tested three times
T1 construct: purchased Roar, New York, NY, USA RB-RPAK
T1 sequence (P11597 18-493): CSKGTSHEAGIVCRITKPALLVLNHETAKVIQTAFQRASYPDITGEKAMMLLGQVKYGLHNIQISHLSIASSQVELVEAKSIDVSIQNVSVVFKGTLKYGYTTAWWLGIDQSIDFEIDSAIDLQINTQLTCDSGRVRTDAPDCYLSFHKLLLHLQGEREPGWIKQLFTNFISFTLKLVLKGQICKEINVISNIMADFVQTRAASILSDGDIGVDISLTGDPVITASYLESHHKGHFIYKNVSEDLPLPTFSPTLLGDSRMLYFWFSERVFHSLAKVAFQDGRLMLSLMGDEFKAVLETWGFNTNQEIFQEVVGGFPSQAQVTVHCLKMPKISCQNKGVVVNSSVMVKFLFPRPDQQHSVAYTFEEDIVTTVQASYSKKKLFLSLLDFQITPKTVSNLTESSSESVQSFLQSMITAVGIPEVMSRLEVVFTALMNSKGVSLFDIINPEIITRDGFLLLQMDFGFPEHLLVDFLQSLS
Procedure: The IC50 was determined from a curve fit of the data with each concentration tested three times.

SMILES | IC50 (recombinant CETP) [µM] | melting point [°C] | decrease of activity on replacing the nitro group at the 4-position of ring B (recombinant CETP; compared with the 4-nitro compound (30)) [fold]
COc1ccc(N(Cc2ccc(F)cc2)Cc2nc(-c3cccc([N+](=O)[O-])c3)cs2)cc1OC [Compound 34, N-(4-Fluorobenzyl)-3,4-dimethoxy-N-((4-(3-nitrophenyl)thiazol-2-yl)methyl)aniline] | 1.38 ± 0.07 | 120.5 to 121.6 | 
Fc1ccc(CN(Cc2nc3ccccc3[nH]2)c2cccc(Oc3ccccc3)c2)cc1 [Compound 17f, N-((1H-Benzo[d]imidazol-2-yl)methyl)-N-(4-fluorobenzyl)-3-phenoxyaniline] | 13.7 ± 0.63 |  | 
Fc1ccc(CN(Cc2nc(-c3ccccc3)cs2)c2cccc(Oc3ccccc3)c2)cc1 [Compound 17d, N-(4-Fluorobenzyl)-3-phenoxy-N-((4-phenylthiazol-2-yl)methyl)aniline] | 9.03 ± 0.21 |  | 
O=[N+]([O-])c1ccc(-c2csc(CN(Cc3ccc(F)cc3)c3ccc(-c4ccccc4)cc3)n2)cc1 [Compound 25, N-(4-Fluorobenzyl)-N-((4-(4-nitrophenyl)thiazol-2-yl)methyl)-[1,1′-biphenyl]-4-amine] | 9.55 ± 0.08 | 164.5 to 166.2 | 
Fc1ccc(CN(Cc2ncc(-c3ccccc3)o2)c2cccc(Oc3ccccc3)c2)cc1 [Compound 17a, N-(4-Fluorobenzyl)-3-phenoxy-N-((5-phenyloxazol-2-yl)methyl)aniline] | 25.7 ± 0.41 | 81 to 82.4 | 
O=[N+]([O-])c1ccc(-c2csc(CN(Cc3ccc(F)cc3)c3cccc(-c4cccs4)c3)n2)cc1 [Compound 28, N-(4-Fluorobenzyl)-N-((4-(4-nitrophenyl)thiazol-2-yl)methyl)-3-(thiophen-2-yl)aniline] | 7.77 ± 0.13 | 143.9 to 148.8 | 
COc1ccc(-c2csc(CN(Cc3ccc(F)cc3)c3ccc(OC)c(OC)c3)n2)cc1 [Compound 43, N-(4-Fluorobenzyl)-3,4-dimethoxy-N-((4-(4-methoxyphenyl)thiazol-2-yl)methyl)aniline] | 11 ± 0.31 | 76.3 to 79 | 
Cn1nccc1-c1cccc(N(Cc2ccc(F)cc2)Cc2nc(-c3ccc([N+](=O)[O-])cc3)cs2)c1 [Compound 29, N-(4-Fluorobenzyl)-3-(1-methyl-1H-pyrazol-5-yl)-N-((4-(4-nitrophenyl)thiazol-2-yl)methyl)aniline] | 24.56 ± 0.22 |  | 
COC(=O)CNc1ccc(-c2csc(CN(Cc3ccc(F)cc3)c3ccc(OC)c(OC)c3)n2)cc1 [Compound 47, Methyl(4-(2-(((3,4-dimethoxyphenyl)(4-fluorobenzyl)amino)methyl)thiazol-4-yl)phenyl)glycinate] | 3.54 ± 0.03 | 103.5 to 105.4 | 
Fc1ccc(CN(Cc2nc3ccccc3o2)c2cccc(Oc3ccccc3)c2)cc1 [Compound 17g, N-(Benzo[d]oxazol-2-ylmethyl)-N-(4-fluorobenzyl)-3-phenoxyaniline] | 15.2 ± 0.52 |  | 
COc1ccc(N(Cc2ccc(F)cc2)Cc2nc(-c3ccccc3[N+](=O)[O-])cs2)cc1OC [Compound 35, N-(4-Fluorobenzyl)-3,4-dimethoxy-N-((4-(2-nitrophenyl)thiazol-2-yl)methyl)aniline] | 6.36 ± 0.12 |  | 
COc1ccc(N(Cc2ccc(F)cc2)Cc2nc(-c3ccc(N4CCOCC4)cc3)cs2)cc1OC [Compound 49, N-(4-Fluorobenzyl)-3,4-dimethoxy-N-((4-(4-morpholinophenyl)thiazol-2-yl)methyl)aniline] | > 50 | 139 to 140.4 | 
COc1ccc(N(Cc2ccc(F)cc2)Cc2nc(-c3ccc4ccccc4c3)cs2)cc1OC [Compound 41, N-(4-Fluorobenzyl)-3,4-dimethoxy-N-((4-(naphthalen-2-yl)thiazol-2-yl)methyl)aniline] | 3.51 ± 0.06 |  | 
COc1ccc(N(Cc2ccc(F)cc2)Cc2nc(-c3ccc(-c4ccnn4C)cc3)cs2)cc1OC [Compound 39, N-(4-Fluorobenzyl)-3,4-dimethoxy-N-((4-(4-(1-methyl-1H-pyrazol-5-yl)phenyl)thiazol-2-yl)methyl)aniline] | 6.38 ± 0.09 | 102.4 to 103.3 | 
COc1cccc(N(Cc2ccc(F)cc2)Cc2nc(-c3ccccc3)cs2)c1 [Compound 21, N-(4-Fluorobenzyl)-3-methoxy-N-((4-phenylthiazol-2-yl)methyl)aniline] | 13.96 ± 0.11 |  | 
COc1ccc(N(Cc2ccc(F)cc2)Cc2nc(-c3ccc(-c4cccs4)cc3)cs2)cc1OC [Compound 40, N-(4-Fluorobenzyl)-3,4-dimethoxy-N-((4-(4-(thiophen-2-yl)phenyl)thiazol-2-yl)methyl)aniline] | 6.03 ± 0.04 | 115.8 to 119 | 

SMILES | IC50 (recombinant CETP) [µM] | melting point [°C] | decrease of activity on replacing the nitro group at the 4-position of ring B (recombinant CETP; compared with the 4-nitro compound (30)) [fold]
COc1ccc(N(Cc2ccc(F)cc2)Cc2nc(-c3ccc(N)cc3)cs2)cc1OC [Compound 44, N-((4-(4-Aminophenyl)thiazol-2-yl)methyl)-N-(4-fluorobenzyl)-3,4-dimethoxyaniline] | 16.7 ± 0.23 | 144.7 to 146.2 | 
COc1ccc(N(Cc2ccc(F)cc2)Cc2nc(-c3ccc(C)cc3)cs2)cc1OC [Compound 42, N-(4-Fluorobenzyl)-3,4-dimethoxy-N-((4-(p-tolyl)thiazol-2-yl)methyl)aniline] | 14 ± 0.21 | 105.3 to 107 | 
COc1ccc(N(Cc2ccc(F)cc2)Cc2nc(-c3ccccc3)cs2)cc1OC [Compound 22, N-(4-Fluorobenzyl)-3,4-dimethoxy-N-((4-phenylthiazol-2-yl)methyl)aniline] | 3.58 ± 0.03 |  | 
COc1ccc(N(Cc2ccc(F)cc2)Cc2nc(-c3ccc(-c4cnn(C)c4)cc3)cs2)cc1OC [Compound 37, N-(4-Fluorobenzyl)-3,4-dimethoxy-N-((4-(4-(1-methyl-1H-pyrazol-4-yl)phenyl)thiazol-2-yl)methyl)aniline] | 4.02 ± 0.05 | 126.1 to 130.3 | 
Fc1ccc(CN(Cc2ncc(-c3ccccc3)s2)c2cccc(Oc3ccccc3)c2)cc1 [Compound 17b, N-(4-Fluorobenzyl)-3-phenoxy-N-((5-phenylthiazol-2-yl)methyl)aniline] | 10.6 ± 0.32 | 90.5 to 92.5 | 
O=[N+]([O-])c1ccc(-c2csc(CN(Cc3ccc(F)cc3)c3cccc(OC(F)(F)F)c3)n2)cc1 [Compound 23, N-(4-Fluorobenzyl)-N-((4-(4-nitrophenyl)thiazol-2-yl)methyl)-3-(trifluoromethoxy)aniline] | 31.69 ± 0.25 |  | 
COc1ccc(N(Cc2ccc(F)cc2)Cc2nc(-c3ccc(NC(C)=O)cc3)cs2)cc1OC [Compound 46, N-(4-(2-(((3,4-Dimethoxyphenyl)(4-fluorobenzyl)amino)methyl)thiazol-4-yl)phenyl)acetamide] | > 50 | 134.6 to 137 | 
COc1ccc(N(Cc2ccc(F)cc2)Cc2nc(-c3ccc(C#N)cc3)cs2)cc1OC [Compound 33, 4-(2-(((3,4-Dimethoxyphenyl)(4-fluorobenzyl)amino)methyl)thiazol-4-yl)benzonitrile] | 1.5 ± 0.03 | 105.4 to 106.6 | 
Cc1cc(CN(Cc2ccc(F)cc2)c2cccc(Oc3ccccc3)c2)nn1-c1ccccc1 [Compound 17c, N-(4-Fluorobenzyl)-N-((5-methyl-1-phenyl-1H-pyrazol-3-yl)methyl)-3-phenoxyaniline] | 17.1 ± 0.44 |  | 
Fc1ccc(CN(Cc2nnc(-c3ccccc3)o2)c2cccc(Oc3ccccc3)c2)cc1 [Compound 17e, N-(4-Fluorobenzyl)-3-phenoxy-N-((5-phenyl-1,3,4-oxadiazol-2-yl)methyl)aniline] | 26.9 ± 0.35 | 97.3 to 98.2 | 
O=[N+]([O-])c1ccc(-c2csc(CN(Cc3ccc(F)cc3)c3cccc(C(F)(F)F)c3)n2)cc1 [Compound 24, N-(4-Fluorobenzyl)-N-((4-(4-nitrophenyl)thiazol-2-yl)methyl)-3-(trifluoromethyl)aniline] | 13.8 ± 0.14 | 107 to 108.4 | 
COc1ccc(N(Cc2ccc(F)cc2)Cc2nc(-c3ccc(Br)cc3)cs2)cc1OC [Compound 36, N-((4-(4-Bromophenyl)thiazol-2-yl)methyl)-N-(4-fluorobenzyl)-3,4-dimethoxyaniline] | 8.96 ± 0.15 |  | 
COc1ccc(N(Cc2ccc(F)cc2)Cc2nc(-c3ccc(NC(=O)C(F)(F)F)cc3)cs2)cc1OC [Compound 45, N-(4-(2-(((3,4-Dimethoxyphenyl)(4-fluorobenzyl)amino)methyl)thiazol-4-yl)phenyl)-2,2,2-trifluoroacetamide] | 15.3 ± 0.17 | 143.6 to 145.8 | 
COc1ccc(N(Cc2ccc(F)cc2)Cc2nc(-c3ccc(F)cc3)cs2)cc1OC [Compound 31, N-(4-Fluorobenzyl)-N-((4-(4-fluorophenyl)thiazol-2-yl)methyl)-3,4-dimethoxyaniline] | 2.46 ± 0.06 |  | 
CCOC(=O)CCCOc1ccc(-c2csc(CN(Cc3ccc(F)cc3)c3ccc(OC)c(OC)c3)n2)cc1 [Compound 48, Ethyl-4-(4-(2-(((3,4-dimethoxyphenyl)(4-fluorobenzyl)amino)methyl)thiazol-4-yl)phenoxy)butanoate] | 8.4 ± 0.04 |  | ~10
O=[N+]([O-])c1ccc(-c2csc(CN(Cc3ccc(F)cc3)c3ccccc3-c3ccccc3)n2)cc1 [Compound 27, N-(4-Fluorobenzyl)-N-((4-(4-nitrophenyl)thiazol-2-yl)methyl)-[1,1′-biphenyl]-2-amine] | 1.02 ± 0.01 |  | 

— PMC6150381, “Design, Synthesis, and Biological Evaluation of N,N-Disubstituted-4-arylthiazole-2-methylamine Derivatives as Cholesteryl Ester Transfer Inhibitors” (Molecules : A Journal of Synthetic Chemistry and Natural …, 2017)
